Laboratory results reported in patent US20040044008A1, “Use of therapeutic benzamide derivatives” (priority 2000, published 2004).

tested on: not given; assay: not given; details: not given

Row | melting point [°C] | SMILES
1 | 169 to 171 | N#Cc1cccc(CN2CCN(c3ccc(NC(=O)c4ccccc4-c4ccccn4)cc3)CC2)c1 [Example 86, N-{4-[4-(3-Cyano-benzyl)-piperazin-1-yl]-phenyl}-2-pyridin-2-yl-benzamide]
2 | 134 to 136 | COc1cccc(C(=O)Nc2ccc(N3CCN(Cc4cccc(C#N)c4)CC3)cc2)c1OCCCc1ccccc1 [Example 33, N-[4-[4-(3-Cyano-benzyl)-piperazin-1-yl]-phenyl]-3-methoxy-2-(3-phenyl-propoxy)-benzamide]
3 | 194 to 196 | O=C(Nc1ccc(N2CCN(Cc3cc[nH]n3)CC2)cc1)c1ccccc1-c1ccc(C(F)(F)F)cc1 [Example 71, 4′-Trifluoromethyl-biphenyl-2-carboxylic acid {4-[4-(1H-pyrazole-3-ylmethyl)-piperazine-1-yl)-phenyl}-amide]
4 | 168 to 170 | N#Cc1cc(CN2CCN(c3ccc(NC(=O)c4ccccc4-c4ccc(C(F)(F)F)cc4)cc3)CC2)ccc1F [Example 47, 4′-Trifluoromethyl-biphenyl-2-carboxylic acid [4-(4-(3-cyano-4-fluoro-benzyl)-piperazin-1-yl)-phenyl]-amide]
5 | 167 to 169 | CCOC(=O)CN1CCN(c2ccc(NC(=O)c3ccccc3-c3ccc(C(F)(F)F)cc3)cc2)CC1 [Example 42, 4′-Trifluoromethyl-biphenyl-2-carboxylic acid [4-(4-ethoxycarbonylmethyl-piperazin-1-yl)-phenyl]-amide]
6 | 183 to 185 | O=C(Nc1ccc(N2CCN(Cc3cnccn3)CC2)cc1)c1ccccc1-c1ccc(C(F)(F)F)cc1 [Example 58, 4′-Trifluoromethyl-biphenyl-2-carboxylic acid [4-(4-pyrazin-2-ylmethyl-piperazin-1-yl)-phenyl]-amide]
7 | 189 to 191 | O=C(Nc1ccc(N2CCN(Cc3ccc4c(c3)OCO4)CC2)cc1)c1ccccc1-c1ccc(C(F)(F)F)cc1 [Example 48, 4′-Trifluoromethyl-biphenyl-2-carboxylic acid [4-(4-(3,4-methylenedioxy-benzyl)-piperazin-1-yl)-phenyl]-amide]
8 | 168 to 170 | COc1cccc(CN2CCN(c3ccc(NC(=O)c4ccccc4-c4ccc(C(F)(F)F)cc4)cc3)CC2)c1 (hydrate or solvate) [Example 51, 4′-Trifluoromethyl-biphenyl-2-carboxylic acid [4-[4-(3-methoxy-benzyl)-piperazin-1-yl]-phenyl]-amide]
9 | 159 to 161 | COc1ccc(C(=O)Nc2ccc(N3CCN(Cc4cccc(C#N)c4)CC3)cc2)c(-c2ccccc2)c1 [Example 12, 5-Methoxy-biphenyl-2-carboxylic acid [4-[4-(3-cyano-benzyl)-piperazin-1-yl]-phenyl]-amide]
10 | 169 to 171 | N#Cc1cccc(CN2CCN(c3ccc(NC(=O)c4ccccc4-c4ccccc4)cc3)CC2)c1 (hydrate or solvate) [Example 11, Biphenyl-2-carboxylic acid [4-[4-(3-cyano-benzyl)-piperazin-1-yl]-phenyl]-amide]
11 | 152 to 154 | O=C(Nc1ccc(N2CCN(Cc3cccc([N+](=O)[O-])c3)CC2)cc1)c1ccccc1-c1ccc(C(F)(F)F)cc1 [Example 49, 4′-Trifluoromethyl-biphenyl-2-carboxylic acid [4-(4-(3-nitro-benzyl)-piperazin-1-yl)-phenyl]-amide]
12 | 187 to 189 | O=C(Nc1ccc(N2CCN(Cc3nccs3)CC2)cc1)c1ccccc1-c1ccc(C(F)(F)F)cc1 (hydrate or solvate) [Example 59, 4′-Trifluoromethyl-biphenyl-2-carboxylic acid [4-(4-thiazol-2-ylmethyl-piperazin-1-yl)-phenyl]-amide]
13 | 188 to 190 | CC(C)c1ccc(-c2cc(Cl)ccc2C(=O)Nc2ccc(N3CCN(Cc4cccc(C#N)c4)CC3)cc2)cc1 [Example 7, 5-Chloro-4′-isopropyl-biphenyl-2-carboxylic acid [4-[4-(3-cyano-benzyl)-piperazin-1-yl]-phenyl]-amide]
14 | 195 to 197 | COc1cccc(C(=O)Nc2ccc(N3CCN(Cc4ccc[nH]4)CC3)cc2)c1-c1ccc(C(C)C)cc1 [Example 68, 4′-Isopropyl-6-methoxy-biphenyl-2-carboxylic acid [4-(4-(1H-pyrrol-2-ylmethyl)-piperazin-1-yl)-phenyl]-amide]
15 | 181 to 183 | CC(=O)c1cccc(CN2CCN(c3ccc(NC(=O)c4ccccc4-c4ccc(C(F)(F)F)cc4)cc3)CC2)c1 [Example 66, 4′-Trifluoromethyl-biphenyl-2-carboxylic acid [4-(4-(3-acetyl-benzyl)-piperazin-1-yl)-phenyl]-amide]
16 | 187 to 189 | O=C(Nc1ccc(N2CCN(Cc3ccsc3)CC2)cc1)c1ccccc1-c1ccc(C(F)(F)F)cc1 [Example 72, 4′-Trifluoromethyl-biphenyl-2-carboxylic acid [4-(4-thiophen-3-ylmethyl-piperazin-1-yl)-phenyl]-amide]
17 | 72 to 76 | Cc1ccc(-c2ccccc2C(=O)Nc2ccc(N3CCN(Cc4cccc(C#N)c4)CC3)cc2)c(C)c1
18 | 168 to 170 | O=C(Nc1ccc(N2CCN(Cc3c[nH]c4ccc(F)cc34)CC2)cc1)c1ccccc1-c1ccc(C(F)(F)F)cc1 [Example 73, 4′-Trifluoromethyl-biphenyl-2-carboxylic acid {4-[4-(5-fluoro-1H-indol-3-ylmethyl)-piperazin-1-yl]-phenyl}-amide]
19 | 208 to 210 | O=C(Nc1ccc(N2CCN(CCCO)CC2)cc1)c1ccccc1-c1ccc(C(F)(F)F)cc1 [Example 44, 4′-Trifluoromethyl-biphenyl-2-carboxylic acid [4-(4-(3-hydroxy-propyl)-piperazin-1-yl]-phenyl]-amide]
20 | 124 to 128 | COc1ccc(-c2ccccc2C(=O)Nc2ccc(N3CCN(Cc4cccc(C#N)c4)CC3)cc2)cc1
21 | 198 to 200 | O=C(Nc1ccc(N2CCN(Cc3ccc(F)cc3)CC2)cc1)c1ccccc1-c1ccc(C(F)(F)F)cc1 [Example 52, 4′-Trifluoromethyl-biphenyl-2-carboxylic acid [4-[4-(4-fluoro-benzyl)-piperazin-1-yl]-phenyl]-amide]

target: human MTP (Homo sapiens, UniProt P55157); assay: human MTP activity assay (SPA, 3H-triolein transfer between liposomes); format: biochemical; details: human MTP-mediated 3H-triolein transfer from donor to acceptor liposomes, 25 min incubation at 37° C., streptavidin-SPA beads
Sequence (P55157 19-894): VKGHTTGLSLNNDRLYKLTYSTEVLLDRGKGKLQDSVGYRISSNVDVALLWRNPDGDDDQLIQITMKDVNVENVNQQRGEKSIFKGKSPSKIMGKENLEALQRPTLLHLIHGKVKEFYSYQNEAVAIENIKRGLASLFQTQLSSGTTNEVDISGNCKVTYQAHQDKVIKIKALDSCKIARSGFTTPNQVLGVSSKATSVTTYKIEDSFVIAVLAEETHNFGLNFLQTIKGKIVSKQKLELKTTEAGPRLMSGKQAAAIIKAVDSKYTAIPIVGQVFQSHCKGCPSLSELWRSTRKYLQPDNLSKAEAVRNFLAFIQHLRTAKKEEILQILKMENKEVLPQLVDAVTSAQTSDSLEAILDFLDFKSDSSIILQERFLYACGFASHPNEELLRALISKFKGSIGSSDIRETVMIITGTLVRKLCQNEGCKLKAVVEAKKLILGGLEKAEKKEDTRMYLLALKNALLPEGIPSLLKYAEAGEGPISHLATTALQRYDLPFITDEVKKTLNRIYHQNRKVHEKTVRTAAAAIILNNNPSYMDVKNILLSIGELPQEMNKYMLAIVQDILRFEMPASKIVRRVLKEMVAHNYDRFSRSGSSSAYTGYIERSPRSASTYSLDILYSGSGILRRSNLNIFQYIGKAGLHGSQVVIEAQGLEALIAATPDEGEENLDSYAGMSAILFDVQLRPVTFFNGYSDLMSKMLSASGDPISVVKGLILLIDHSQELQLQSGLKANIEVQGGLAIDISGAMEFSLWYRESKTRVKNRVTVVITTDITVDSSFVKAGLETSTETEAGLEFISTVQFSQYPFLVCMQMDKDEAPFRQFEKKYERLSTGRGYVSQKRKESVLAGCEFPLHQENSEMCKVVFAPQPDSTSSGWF
Sequence (P07237 18-508 partner): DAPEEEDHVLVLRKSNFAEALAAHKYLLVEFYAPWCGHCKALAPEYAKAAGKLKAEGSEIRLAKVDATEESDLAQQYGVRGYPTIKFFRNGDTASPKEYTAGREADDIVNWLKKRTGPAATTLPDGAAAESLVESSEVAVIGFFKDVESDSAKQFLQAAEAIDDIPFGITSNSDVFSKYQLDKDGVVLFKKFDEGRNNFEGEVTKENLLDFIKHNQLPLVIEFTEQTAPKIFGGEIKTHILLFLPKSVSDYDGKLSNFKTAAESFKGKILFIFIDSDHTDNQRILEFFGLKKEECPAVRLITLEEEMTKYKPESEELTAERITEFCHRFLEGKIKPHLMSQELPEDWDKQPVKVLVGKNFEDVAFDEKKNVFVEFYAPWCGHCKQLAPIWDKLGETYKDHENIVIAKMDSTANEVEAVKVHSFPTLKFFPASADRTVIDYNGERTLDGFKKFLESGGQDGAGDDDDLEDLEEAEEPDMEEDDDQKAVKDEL
Source text: Such derivatives are clear to those skilled in the art, without undue experimentation, and with reference to the teaching of Burger's Medicinal Chemistry And Drug Discovery, 5th Edition, Vol 1: Principles And Practice, which is incorporated herein by reference. […] MTP inhibitors may be used in the treatment of non-insulin dependent diabetes mellitus, insulin resistance, coronary heart disease, prevention of stroke, pancreatitis, hypercholesterolemia, hypertriglyceridemia, hyperlipemia, mixed dyslipidemia, post-prandial hyperlipemia, atherosclerosis and obesity. The ability of the compounds of this invention to inhibit human MTP activity is measured by an in vitro assay where MTP transfers 3H-triolein between phosphatidylcholine liposomes. The specificity of the compounds of the invention is established by comparing the effects on apoB-100 and apoprotein A-1 production. A specificity of at least 100 is preferred.
The human MTP activity assay was established using SPA technology. Donor liposomes were prepared with 3H-triolein and phosphatidylcholine, while acceptor liposomes contained biotinylated phosphatidylethanolamine and phosphatidylcholine. The MTP-mediated 3H-triolein transfer onto acceptor liposomes was allowed by a 25 min incubation at 37° C., and quantified by the addition of streptavidin-SPA beads.

Row | IC50 [pM] | SMILES
22 | 200 | COc1cccc(C(=O)Nc2ccc(N3CCN(Cc4cccc(C#N)c4)CC3)cc2)c1-c1ccc(C(C)C)cc1 [Example 3, 4′-Isopropyl-6-methoxy-biphenyl-2-carboxylic acid [4-[4-(3-cyano-benzyl)-piperazin-1-yl]-phenyl]-amide]
23 | 300 | COc1cccc(C(=O)Nc2ccc(N3CCN(CC(N)=O)CC3)cc2)c1-c1ccc(C(C)C)cc1 [Example 38, 4′-Isopropyl-6-methoxy-biphenyl-2-carboxylic acid [4-(4-carbamoylmethyl-piperazin-1-yl)-phenyl]-amide]
24 | 200 | Cc1cccc(C(=O)Nc2ccc(N3CCN(Cc4cccc(C#N)c4)CC3)cc2)c1-c1ccc(C(C)C)cc1 [Example 4, 4′-Isopropyl-6-methyl-biphenyl-2-carboxylic acid [4-[4-(3-cyano-benzyl)-piperazin-1-yl]-phenyl]-amide]
25 | 300 | Cc1ccc(C(=O)Nc2ccc(N3CCN(Cc4cccc(-c5nc(C)no5)c4)CC3)cc2)c(-c2ccc(C(C)C)cc2)c1 [Example 6]
